Measurements as given in patent publication US10300144B2, “N-terminal polysialylation” (Lipoxen Technologies Limited, priority 2006, dated 2019).
Each block holds one substance with its values, some of them ahead of it.

How the values were obtained:
blood glucose = assay: In vivo efficacy of insulin formulations (blood glucose after subcutaneous injection); set-up: species or system mice; conditions: for T-Test probability level of the difference against the Tris buffer, in vivo efficiency: mice
Procedure: The in vivo efficacy of insulin formulations was studied in female mice CD-1, 7-8 weeks old, 0.3 IU of protein dose (same activity) was injected in mice subcutaneously. Animals were divided into seven groups of four. insulin formulations were given to each animal of each group in the following manner; insulin (0.3 IU/mouse), Lantus (Aventis) insulin-PSA conjugate (14 KDa), PBS, one drop of blood was taken from each animal and was measured blood glucose by ACCU-CHEK Active (Roche Diagnostics).

[1] = cyanuric chloride activated PEG (2000 Da) conjugates; cited from earlier work
[2] = Colominic acid (CAO) stability at different pH; format: physicochemical
Procedure: Colominic acid samples (CA and CAO) were dissolved in NaNO3 (0.2M), CH3CN (10%; 5 mg/ml) and were chromatographed on over 2× GMPWXL columns with detection by refractive index (GPC system: VE1121 GPC solvent pump, VE3580 RI detector and collation with Trisec 3 software (Viscotek Europe Ltd). Samples (5 mg/ml) were filtered over 0.45 μm nylon membrane and run at […] with 0.2M NaNO3 and CH3CN (10%) as the mobile phase.
The rules for chemistry of the PEGylation cannot be applied to polysialylation as such because of the difference in the physiochemical properties of these molecules. PSA is an acid labile polymer and is stable for weeks around neutral pH (FIG. 3). […] Polysialic acid is highly hydrophilic whereas PEG is an ampiphilic molecule in nature. When the polysialylation is carried out using conditions used for PEGylation, aggregation and precipitation of the proteins is seen in many cases.

[3] = Isoelectric focusing (IEF) gel; format: physicochemical; conditions: IEF gel pH 3-10
Procedure: Novex® IEF gel was used to determine differences in insulin and CAO-insulin conjugate isoelectric points. Samples was dissolved to a concentration of 0.5 mg/ml. 5 ul sample was diluted with 5 ul Novex IEF Sample Buffer pH 3-10 and then loaded the protein sample on the gel.

liver enzymes = conditions: cited from earlier work
blood sugar levels = conditions: rabbits, calculated on a molar basis; cited from earlier work

Substance: insulin [reference compound]
T-Test probability level of the difference against the Tris buffer, in vivo efficiency (blood glucose; time 32.0 minutes): *** (*** P < 0.001)
T-Test probability level of the difference against the Tris buffer, in vivo efficiency (blood glucose; time 64.5 minutes): *** (*** P < 0.001)
T-Test probability level of the difference against the Tris buffer, in vivo efficiency (blood glucose; time 99.4 minutes): *** (*** P < 0.001)

Substance: PEG-insulin conjugates: Davis et al. conjugates of insulin with cyanuric chloride activated PEG (2000 Da)
activity (partially active) [1]: about 50%

Substance: 21.5 kd CAO-insulin: conjugate of insulin with 21.5 kDa oxidised colominic acid (FIG. 9)
effect on decreasing blood glucose in mice (blood glucose; among conjugates of FIG. 9 (10, 15, 21.5 kDa), PBS control): most significant effect on the decreasing blood glucose in mice

Substance: 21 kDa CAO-insulin: conjugate of insulin with 21 kDa oxidised colominic acid
T-Test probability level of the difference against the Tris buffer, in vivo efficiency (blood glucose; time 64.5 minutes): *** (*** P < 0.001)
T-Test probability level of the difference against the Tris buffer, in vivo efficiency (blood glucose; time 99.4 minutes): *** (*** P < 0.001)
T-Test probability level of the difference against the Tris buffer, in vivo efficiency (blood glucose; time 230.2 minutes): * (* P < 0.05)

slow degradation, % of initial MW ([2]; pH 4.0, after 48 hours): 70 % of initial MW
slow degradation, % of initial MW ([2]; pH 5.0, after 48 hours): 92 % of initial MW
stability of CAO ([2]; pH 6.0): stable for 8 days
stability of CAO ([2]; pH 7.4): stable for 8 days
Substance: oxidised colominic acid [CAO]

Substance: 13 kDa CAO-insulin: N-terminal conjugate of insulin with 13 kDa oxidised colominic acid (polysialic acid)
T-Test probability level of the difference against the Tris buffer, in vivo efficiency (blood glucose; time 32.0 minutes): ** (** P < 0.01)
T-Test probability level of the difference against the Tris buffer, in vivo efficiency (blood glucose; time 64.5 minutes): *** (*** P < 0.001)
T-Test probability level of the difference against the Tris buffer, in vivo efficiency (blood glucose; time 99.4 minutes): *** (*** P < 0.001)
isoelectric point (pI) [3]: no fixed isoelectric point

Substance: 15 KDa CAO-insulin (Sigma): conjugate of insulin with 15 kDa oxidised colominic acid
pH effect (of polysialylation) on in vivo efficiency (blood glucose; conjugation pH 6.0 versus 7.4): pH 6.0 is better than 7.4
probability level of the difference against the PBS buffer (blood glucose; time 30 (unit not given)): ** (**P < 0.01)
probability level of the difference against the PBS buffer (blood glucose; time 60 (unit not given)): *** (***P < 0.001)
probability level of the difference against the PBS buffer (blood glucose; time 90 (unit not given)): *** (***P < 0.001)
probability level of the difference against the PBS buffer (blood glucose; time 120 (unit not given)): ** (**P < 0.01)
probability level of the difference against the PBS buffer (blood glucose; time 150 (unit not given)): * (*P < 0.05)

Substance: 32 kDa CAO-insulin: conjugate of insulin with 32 kDa oxidised colominic acid
T-Test probability level of the difference against the Tris buffer, in vivo efficiency (blood glucose; time 32.0 minutes): *** (*** P < 0.001)
T-Test probability level of the difference against the Tris buffer, in vivo efficiency (blood glucose; time 64.5 minutes): *** (*** P < 0.001)
T-Test probability level of the difference against the Tris buffer, in vivo efficiency (blood glucose; time 99.4 minutes): *** (*** P < 0.001)
T-Test probability level of the difference against the Tris buffer, in vivo efficiency (blood glucose; time 1354.9 minutes): * (* P < 0.05)

Substance: PEG(1500)-B1-insulin: Geiger et al./Ehrat et al. PEG-insulin adduct modified at residue PheB1
stability to liver enzymes versus native insulin (liver enzymes): far more stable

Substance: mPEG(1500)-B1-insulin: Obermeier et al. site-specific PEG-insulin conjugate modified at residue PheB1
insulin effect on reduction of blood sugar levels (blood sugar levels): 100%

Substance: 27 kDa CAO-insulin: conjugate of insulin with 27 kDa oxidised colominic acid
T-Test probability level of the difference against the Tris buffer, in vivo efficiency (blood glucose; time 32.0 minutes): ** (** P < 0.01)
T-Test probability level of the difference against the Tris buffer, in vivo efficiency (blood glucose; time 64.5 minutes): *** (*** P < 0.001)
T-Test probability level of the difference against the Tris buffer, in vivo efficiency (blood glucose; time 99.4 minutes): ** (** P < 0.01)
T-Test probability level of the difference against the Tris buffer, in vivo efficiency (blood glucose; time 230.2 minutes): ** (** P < 0.01)
T-Test probability level of the difference against the Tris buffer, in vivo efficiency (blood glucose; time 1354.9 minutes): ** (** P < 0.01)
isoelectric point (pI) [3]: no fixed isoelectric point
